Patent US8188003B2, “Method of inducing virus tolerance of plants” (BASF Aktiengesellschaft, priority 2005, dated 2012)

Experiments:
TMV [1] = experiment: Use example 3: leaf halves infiltrated, TMV infection 1 day after treatment, lesion area versus control; assay type: in vivo, tobacco plants (cultivar Xanthi-nc); conditions: 1 mM in 1% aqueous ethanol, evaluated after further 5 days
Procedure: (§1) Leaf halves of approx. 5-weeks-old tobacco plants (cultivar Xanthi-nc) were infiltrated with 1 mM active ingredient solution in 1% aqueous ethanol; the leaf halves of the controls were infiltrated with 1% aqueous ethanol.
(§2) Infection with TMV was carried our 1 day after treatment; the plants were evaluated after further 5 days. The data shown are the averages of the leaf areas which had died owing to viral attack (lesions) at the infection site on leaf halves treated with active ingredient or untreated leaf halves (controls):
(§3) Area of the lesions in comparison with the control: […]

TMV [2] = experiment: Use example 5: spraying the leaves with active ingredient solutions, TMV infection 5 days after treatment, lesion area versus control; assay type: in vivo, tobacco plants (cultivar Xanthi-nc); conditions: 2 mM with universal wetter 1:1 (w/w), sprayed, evaluated after further 4 days
Procedure: In each case 2 mM active ingredient were dissolved in water with the aid of a universal wetter in the ratio 1:1 (w/w) and sprayed onto the leaf halves of 5-week-old tobacco plants (cultivar Xanthi-nc) (leaf halves of the controls were sprayed with dissolved wetter only).
as §2, with “out 5 days” for “our 1 day”, “the treatment, and” for “treatment;”, “4” for “5”
as §3

TMV [3] = experiment: Use example 4: leaf halves infiltrated, TMV infection 2 days after treatment, lesion area versus control; assay type: in vivo, tobacco plants (cultivar Xanthi-nc); conditions: 1 mM in 1% aqueous ethanol, evaluated after further 5 days
Procedure: as §1
The procedure of use example 3 was followed, but infection was carried out 2 days after the treatment and the plants were evaluated after further 5 days.
as §3

[4] = test system: tobacco mosaic virus (TMV, strain U1); experiment: Use example 1: active ingredient solution injected into tobacco leaves, TMV infection, lesion diameter; assay type: in vivo, tobacco plants (Nicotinia tabacum cv. Xanthi-nc); conditions: injected into leaf, infection 1 day after pretreatment, after 7 days, water control 3.55 mm
Procedure: (§4) For the experiments, tobacco plants (Nicotinia tabacum cv. Xanthi-nc) were grown at 25° C., an atmospheric humidity of 59% and a daily photoperiod of 16 hours (150-200 μM quanta/s^−1/m^−2) for 4 to 5 weeks in potting compost (standard soil type ED 73). Some of the plants were fed once per week by adding a commercial house-plant fertilizer (10% total nitrogen, 9% phosphate, 7% potash) to the irrigation water at the recommended rate.
(§5) The formulated active ingredient used took the form of water-dispersible granules with an active ingredient content of 20%. The concentrations used in the experiments (0.01-10 mM) are based on the active ingredient content. To prevent distribution of the active ingredient in the entire plant, the stalks of plants where a leaf had been infiltrated were removed above the treated leaf, using a sterile surgical blade.
(§6) After the application of the active ingredient, and also after infection with the virus at a later time, the plants were left to stand in the growth cabinet.
(§7) The various pretreated tobacco plants were infected with tobacco mosaic virus (TMV, strain U1). […] Five to 7 days post-infection, the diameter of 10 to 20 lesions on the leaves was determined. […]
After 7 days, the diameter of the lesions on the leaves caused by TMV was determined in millimeters [mm].

TMV [5] = experiment: Use example 6: plant growth and tolerance to viral infection of TMV-inoculated tomato plants after spray treatment; assay type: in vivo, Tomato plants (cultivar Gaucho)
Procedure: The experiments were performed in greenhouse of under appropriate growing conditions for tomatoes. Tomato plants (cultivar Gaucho) were grown in pots until development of the first two true leaves. Then the plantlets were sprayed with different concentrations of formulated Pyraclostrobin (compound I-5; commercial fungicide Cabrio Top® of BASF Aktiengesellschaft). These treatments were done either 120 hours before or following inoculation of the plantlets with TMV, representing protective and curative situation. The treatments were run with 5 replicates, each containing 3 plantlets. 30 days after last treatment the plants were analyzed for visual plant growth (altitude and dry mass) and chlorophyll content (photometric measurement of extracts). Also the virus titre was determined (ELISA).
Same letters indicate non significant differences (Tukey; P≦0.05).

[6] = test system: tobacco mosaic virus (TMV, strain U1); experiment: Use example 2: one leaf half infiltrated with active ingredient solution, TMV infection, lesion diameter; assay type: in vivo, tobacco plants (Nicotinia tabacum cv. Xanthi-nc); conditions: after 5 days
Procedure: as §4, §5, §6, §7
After 5 days, the diameter of the lesions on the leaves caused by TMV was determined in millimeters [mm].

Compound	Area of the lesions in comparison with the control, Area in percent (TMV [1]) [%]	Area of the lesions in comparison with the control, Area in percent (TMV [2]) [%]	Area of the lesions in comparison with the control, Area In percent (TMV [3]) [%]	diameter of the lesions on the leaves caused by TMV (average) ([4]; 1 mM) [mm]	diameter of the lesions on the leaves caused by TMV (average) ([4]; 2.5 mM) [mm]	effect compared with untreated plants (TMV [5]; Curative treatment)	effect on growth inhibition and loss of leaf chlorophyll caused by TMV infection (TMV [5]; protective treatment)	diameter of the lesions on the leaves caused by TMV (average), treated leaf zones ([6]; 0.5 mM, water control plants 3.2 mm) [mm]	diameter of the lesions on the leaves caused by TMV (average), treated leaf zones ([6]; 1 mM, water control plants 3.35 mm) [mm]
CNC(=O)/C(=N/OC)c1ccccc1CO/N=C(C)/C(=N/OC)C(/C)=N/OC [Compound V-16, orysastrobin]	63.8								
CNC(=O)/C(=N/OC)c1ccccc1COc1cc(C)ccc1C [II-3, dimoxystrobin]	68.1	49.6	62.7						
CO/C=C(/C(=O)OC)c1ccccc1Oc1cc(Oc2ccccc2C#N)ncn1 [VII-1, azoxystrobin]	62.1	68.3	70.4						
pyraclostrobin [Compound I-5]	53.0			2.35	1.8	no advantage compared with untreated plants	can prevent growth inhibition and loss of leaf chlorophyll caused by TMV infection	2.75	2.85
